Reference: article PMC9024597, “The Biological Fate of a Novel Anticancer Drug Candidate TNBG-5602: Metabolic Profile, Interaction with CYP450, and Pharmacokinetics in Rats” (Molecules, 2022)

Key:
CYP4V2 = molecular target: T1, CYP4V2 (Homo sapiens, UniProt Q6ZWL3); assay: Metabolite formation on incubation with recombinant CYP; format: in vitro ADME; settings: TNBG-5602 5 μg mL^−1, recombinant CYP 0.025 μM, 37 °C, 60 min
T1 construct: purchased Abnova P01
T1 sequence (Q6ZWL3 1-525): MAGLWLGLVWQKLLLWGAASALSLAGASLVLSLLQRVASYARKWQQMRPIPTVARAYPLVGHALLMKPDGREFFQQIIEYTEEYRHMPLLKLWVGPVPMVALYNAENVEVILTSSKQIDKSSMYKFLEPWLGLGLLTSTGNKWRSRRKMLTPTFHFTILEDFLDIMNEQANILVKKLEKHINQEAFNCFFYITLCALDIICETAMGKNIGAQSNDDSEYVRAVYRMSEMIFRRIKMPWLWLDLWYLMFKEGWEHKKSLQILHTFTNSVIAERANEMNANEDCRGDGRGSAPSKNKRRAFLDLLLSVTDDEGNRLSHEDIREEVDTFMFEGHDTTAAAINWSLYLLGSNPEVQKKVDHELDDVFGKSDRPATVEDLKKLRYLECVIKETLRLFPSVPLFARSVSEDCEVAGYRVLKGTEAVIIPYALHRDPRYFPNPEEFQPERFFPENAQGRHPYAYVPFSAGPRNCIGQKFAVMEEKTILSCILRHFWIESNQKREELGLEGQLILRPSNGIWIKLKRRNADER
Procedure: (§1) An Exion LC^TM AC UPLC system (AB Sciex, Framingham, MA, USA) coupled with an […] Q-TOF tandem mass spectrometer was used for qualitative analysis in this study. Chromatographic separation was carried out on an ACQUITY UPLC HSS T3 column (2.1 × 75 mm, 1.8 μm, Waters, Wexford, Ireland). […] The column temperature was set to 35 °C. The injection volume was 5 μL. A full scan was performed over m/z 100-1000 for precursor ions in positive mode with a spray voltage of 5.5 kV, collision energy (CE) of 35 V, CE spread of 15 V, and accumulation time of 0.05 s. The Q-TOF scan for product ions was performed over m/z 100-1200 with CE 10 V and an accumulation time of 0.1 s. For the structural identification of metabolites, the UPLC-Q-TOF-MS/MS data were acquired and processed via SCIEX OS (Version 1.7, AB Sciex, Redwood City, CA, USA). The raw data files were imported into SCIEX OS 2.1 to search for and identify the metabolites of TNBG-5602. Identification of the chemical structure included two steps. The first step was automatic prediction, while the second step was manual validation. In Step 1, the candidate metabolites were predicted by the software based on the typical metabolic reactions of the templates. In Step 2, an ion chromatogram was extracted to screen candidate metabolites with mass tolerance within 5 ppm, using blank samples for the subtraction of the background. Then, the MS/MS fragment ions were extracted for the structural confirmation of candidate metabolites. The stock solution of TNBG-5602 ([…]) was prepared using 0.1% aqueous formic acid. Then, the stock solution was diluted with PBS buffer to make the working solution of TNBG-5602 (1 mg mL^-1). The working solution of TNBG-5602 was incubated with CYP2D6, CYP3A4, CYP2C9, and CYP4V2 recombinant cytochrome enzymes, respectively. The total incubation volume for each reaction was 200 μL, containing TNBG-5602 (final concentration: 5 μg mL^-1), cytochrome P450s (final concentration: 0.025 μM), 3.3 mM MgCl2, 1.3 mM NADPH, 3.3 mM glucose-6-phosphate, 0.4 U mL^-1 glucose-6-phosphate dehydrogenase, and 0.05 mM sodium citrate. The cytochrome P450s were thawed on an ice bath and pre-incubated at 37 °C for 5 min. The mixtures were pre-incubated at 37 °C for 5 min before adding NADPH to initiate the reaction. NADPH was pre-incubated at 37 °C for 5 min and then added into the incubation system to initiate the reaction. The incubation periods were 60 min, and the reactions were quenched by adding 200 μL of iced acetonitrile. The samples were centrifuged (12,000× g rpm, 4 °C) for 10 min, and the supernatant was analyzed via the qualitative LC-MS/MS method. Blank samples in the absence of TNBG-5602 were incubated and followed by the same treatment.

CYP2C9 = molecular target: T2, CYP2C9 (Homo sapiens, UniProt P11712); assay: as above; format: in vitro ADME; settings: TNBG-5602 5 μg mL^−1, recombinant CYP 0.025 μM, 37 °C, 60 min
T2 construct: purchased IPHASE
Procedure: as §1

CYP2D6 = molecular target: T3, CYP2D6 (Homo sapiens, UniProt P10635); assay: as above; format: in vitro ADME; settings: TNBG-5602 5 μg mL^−1, recombinant CYP 0.025 μM, 37 °C, 60 min
T3 construct: purchased IPHASE
Procedure: as §1

CYP3A4 = molecular target: T4, CYP3A4 (Homo sapiens, UniProt P08684); assay: as above; format: in vitro ADME; settings: TNBG-5602 5 μg mL^−1, recombinant CYP 0.025 μM, 37 °C, 60 min
T4 construct: purchased IPHASE
Procedure: as §1

[1] = In vivo metabolites in rat urine and feces by UPLC-Q-TOF-MS/MS; settings: rats; for metabolite detected in feces: TNBG-5602 i.v. 4.8 mg kg^−1, feces 0-24 h
Procedure: An Exion LC^TM AC UPLC system (AB Sciex, Framingham, MA, USA) coupled with an […] Q-TOF tandem mass spectrometer was used for qualitative analysis in this study. Chromatographic separation was carried out on an ACQUITY UPLC HSS T3 column (2.1 × 75 mm, 1.8 μm, Waters, Wexford, Ireland). […] The column temperature was set to 35 °C. The injection volume was 5 μL. A full scan was performed over m/z 100-1000 for precursor ions in positive mode with a spray voltage of 5.5 kV, collision energy (CE) of 35 V, CE spread of 15 V, and accumulation time of 0.05 s. The Q-TOF scan for product ions was performed over m/z 100-1200 with CE 10 V and an accumulation time of 0.1 s. For the structural identification of metabolites, the UPLC-Q-TOF-MS/MS data were acquired and processed via SCIEX OS (Version 1.7, AB Sciex, Redwood City, CA, USA). The raw data files were imported into SCIEX OS 2.1 to search for and identify the metabolites of TNBG-5602. Identification of the chemical structure included two steps. The first step was automatic prediction, while the second step was manual validation. In Step 1, the candidate metabolites were predicted by the software based on the typical metabolic reactions of the templates. In Step 2, an ion chromatogram was extracted to screen candidate metabolites with mass tolerance within 5 ppm, using blank samples for the subtraction of the background. Then, the MS/MS fragment ions were extracted for the structural confirmation of candidate metabolites. […] The urine and feces samples were collected before administration (0 h) and at 8, 12, and 24 h after intravenous injection. The urine samples were vortex mixed with acetonitrile at a ratio of 1:3 (v/v) for 15 min. The mixture was then centrifuged at 15,000 rpm for 10 min, and the supernatant was dried using a gentle flow of nitrogen. The residue was dissolved in acetonitrile and vortex mixed again. The supernatant was dried again and re-dissolved in 0.1% aqueous formic acid: acetonitrile (50:50, v/v). The treated sample solutions were stored at -20 °C until analysis. A 5 μL aliquot of the thawed sample solution was injected into the UPLC-Q-TOF-MS/MS device to analyze the metabolites. The feces samples were homogenized with pure water at a ratio of 1:1 (w/w). The homogenate was vortex mixed with acetonitrile at a ratio of 1:3 (w/v) for 15 min. The mixture was then centrifuged at 15,000 rpm for 10 min, and the supernatant was dried using a gentle flow of nitrogen. The residue was dissolved with acetonitrile and vortex mixed again. The supernatant was dried again and re-dissolved in 0.1% aqueous formic acid: acetonitrile (50:50, v/v). The treated sample solutions were stored at -20 °C until analysis. A 5-μL aliquot of the thawed sample solution was injected into the UPLC-Q-TOF-MS/MS device to analyze the metabolites.

T2 sequence (P11712 whole entry): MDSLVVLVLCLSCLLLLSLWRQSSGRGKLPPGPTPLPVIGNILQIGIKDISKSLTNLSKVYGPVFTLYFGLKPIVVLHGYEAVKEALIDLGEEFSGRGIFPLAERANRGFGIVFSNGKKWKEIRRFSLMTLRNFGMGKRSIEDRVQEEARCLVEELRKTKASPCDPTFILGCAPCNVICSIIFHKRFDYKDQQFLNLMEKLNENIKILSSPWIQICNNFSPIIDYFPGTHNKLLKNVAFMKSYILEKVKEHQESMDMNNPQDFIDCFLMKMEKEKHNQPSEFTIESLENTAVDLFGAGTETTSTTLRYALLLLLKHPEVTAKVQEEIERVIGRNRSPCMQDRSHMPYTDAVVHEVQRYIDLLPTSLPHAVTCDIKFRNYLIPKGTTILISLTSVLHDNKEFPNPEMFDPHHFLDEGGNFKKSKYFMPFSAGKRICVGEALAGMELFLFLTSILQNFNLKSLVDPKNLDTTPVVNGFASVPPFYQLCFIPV
T4 sequence (P08684 whole entry): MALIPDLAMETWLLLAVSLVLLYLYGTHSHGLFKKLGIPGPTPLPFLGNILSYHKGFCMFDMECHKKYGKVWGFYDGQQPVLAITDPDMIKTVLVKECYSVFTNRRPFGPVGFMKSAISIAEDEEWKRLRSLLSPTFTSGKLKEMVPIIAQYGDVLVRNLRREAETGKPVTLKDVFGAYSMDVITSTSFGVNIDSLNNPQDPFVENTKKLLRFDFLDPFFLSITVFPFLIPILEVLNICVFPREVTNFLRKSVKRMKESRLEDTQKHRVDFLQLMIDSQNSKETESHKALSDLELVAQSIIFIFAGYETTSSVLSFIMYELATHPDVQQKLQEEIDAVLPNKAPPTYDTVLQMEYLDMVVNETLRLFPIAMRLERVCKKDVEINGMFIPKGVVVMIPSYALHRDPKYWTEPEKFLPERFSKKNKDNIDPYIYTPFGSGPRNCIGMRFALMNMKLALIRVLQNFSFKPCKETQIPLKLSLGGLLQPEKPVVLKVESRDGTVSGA
T3 sequence (P10635 whole entry): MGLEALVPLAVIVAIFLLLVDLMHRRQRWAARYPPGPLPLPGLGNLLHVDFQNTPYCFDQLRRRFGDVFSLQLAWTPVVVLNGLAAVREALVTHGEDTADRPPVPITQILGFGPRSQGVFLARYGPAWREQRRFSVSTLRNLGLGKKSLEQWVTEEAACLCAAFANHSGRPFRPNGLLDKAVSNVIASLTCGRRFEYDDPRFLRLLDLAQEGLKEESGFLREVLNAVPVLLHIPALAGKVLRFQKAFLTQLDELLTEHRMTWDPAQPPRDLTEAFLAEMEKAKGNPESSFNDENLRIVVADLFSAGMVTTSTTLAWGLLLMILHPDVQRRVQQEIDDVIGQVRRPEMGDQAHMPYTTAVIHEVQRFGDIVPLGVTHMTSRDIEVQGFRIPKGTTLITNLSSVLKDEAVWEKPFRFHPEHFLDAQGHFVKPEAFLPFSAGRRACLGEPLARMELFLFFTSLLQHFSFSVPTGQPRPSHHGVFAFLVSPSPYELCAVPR

| metabolite detected after incubation with CYP4V2 (CYP4V2) | metabolite detected after incubation with CYP2C9 (CYP2C9) | metabolite detected after incubation with CYP2D6 (CYP2D6) | metabolite detected after incubation with CYP3A4 (CYP3A4) | rank of metabolite in the feces (major/minor) ([1]; TNBG-5602 i.v.) | rank of metabolite in the urine ([1]; TNBG-5602 i.v.) | metabolite detected in feces [1] | metabolite detected in urine ([1]; TNBG-5602 i.v. 4.8 mg kg^−1, urine 0-24 h) | Compound |
| --- | --- | --- | --- | --- | --- | --- | --- | --- |
| found and × | found and × | observed and × | obtained and × | major | main | present and × | present and × | CNCCN1CC2c3ccccc3CCN2c2nc3ccccc3nc21 (centres unmarked) [M5] |
| – | – | – | – | minor | – | × | – | CN1CCN2CC3c4ccccc4CCN3C3=Nc4ccccc4NC312 (centres unmarked) [M6] |
| – | – | – | – | minor | – | × | – | c1ccc2c(c1)CCN1c3nc4ccccc4nc3N(CCN3COC3)CC21 (centres unmarked) [M7] |
| – | – | – | – | minor | – | × | – | CN(C=O)CCN1CC2c3ccccc3CCN2c2nc3ccccc3nc21 (centres unmarked) [M8] |
